Patent publication US6156790A, “C-10 carbon-substituted artemisinin-like trioxane compounds having antimalarial, antiproliferative and antitumor activities” (priority 1997, dated 2000)

Columns and labels:
[1] = test system: Ehrlich ascites tumor (EAT) cells; details: cited from earlier work
[2] = test system: P. berghei; details: cited from earlier work
[3] = test system: K-562; experiment: cells; format: cell-based; details: Homo sapiens, K562, read-out: Log10 TGI
[4] = test system: MOLT-4; experiment: cells; details: Homo sapiens, MOLT-4, read-out: concentration for primary growth inhibition
Procedure: The screening assay is performed on a 96-well microtitre plates.
Dose response curves, shown in the above mentioned Figures, are obtained by exposing various cancer cell lines to compounds having a known concentration ([log10 M]), as discussed in detail above, and then plotting the percentage growth of each cell line for each concentration. […] As discussed previously, the five drug dilutions routinely tested range from 10^-4 to 10^-9 molar.

[5] = test system: A549/ATCC; experiment: NCI 60 cell line screen (SRB), non-small cell lung cancer; format: cell-based; details: Homo sapiens
[6] = test system: EKVX; experiment: as above; format: cell-based; details: Homo sapiens
[7] = test system: HOP-62; experiment: cells; format: cell-based; details: Homo sapiens, read-out: Log10 TGI (converted)
[8] = test system: HOP-92; experiment: NCI 60 cell line screen (SRB), non-small cell lung cancer; format: cell-based; details: Homo sapiens, read-out: Log10 TGI (converted)
[9] = test system: NCI-H226; experiment: as above; format: cell-based; details: Homo sapiens
[10] = test system: NCI-H23; experiment: as above; format: cell-based; details: Homo sapiens
[11] = test system: NCI-H460; experiment: cells; format: cell-based; details: Homo sapiens
[12] = test system: NCI-H522; experiment: cells; format: cell-based; details: Homo sapiens, read-out: Log10 TGI (converted)
[13] = test system: COLO 205; experiment: NCI 60 cell line screen (SRB), colon cancer; format: cell-based; details: Homo sapiens, read-out: Log10 TGI (converted)
[14] = test system: HCT-116; experiment: cells; format: cell-based; details: Homo sapiens, read-out: Log10 TGI (converted)
[15] = test system: HCT-15; experiment: cells; format: cell-based; details: Homo sapiens, HCT-15, read-out: Log10 TGI
[16] = test system: HT29; experiment: cells; format: cell-based; details: Homo sapiens, HT-29, read-out: Log10 TGI (converted)
[17] = test system: KM12; experiment: cells; format: cell-based; details: Homo sapiens, read-out: Log10 TGI (converted)
[18] = test system: SF-268; experiment: NCI 60 cell line screen (SRB), CNS cancer; format: cell-based; details: Homo sapiens, read-out: Log10 TGI (converted)
[19] = test system: SF-295; experiment: cells; format: cell-based; details: Homo sapiens, read-out: Log10 TGI (converted)
[20] = test system: SF-539; experiment: cells; format: cell-based; details: Homo sapiens, read-out: Log10 TGI (converted)
[21] = test system: SNB-75; experiment: cells; format: cell-based; details: Homo sapiens
[22] = test system: U251; experiment: cells; format: cell-based; details: Homo sapiens, U-251, read-out: Log10 TGI (converted)
[23] = test system: A498; experiment: cells; format: cell-based; details: Homo sapiens, read-out: Log10 GI50 (converted)
[24] = test system: PC-3; experiment: cells; format: cell-based; details: Homo sapiens, PC-3, read-out: Log10 TGI
[25] = test system: MCF7; experiment: cells; format: cell-based; details: Homo sapiens
[26] = test system: MDA-MB231/ATCC; experiment: cells; format: cell-based; details: Homo sapiens, MDA-MB-231, read-out: Log10 TGI (converted)
[27] = test system: HS 578T; experiment: cells; format: cell-based; details: Homo sapiens, read-out: Log10 TGI (converted)
[28] = test system: MDA-MB-435; experiment: cells; format: cell-based; details: Homo sapiens, read-out: Log10 TGI (converted)
[29] = test system: MDA-N; experiment: cells; format: cell-based; details: Homo sapiens
[30] = test system: BT-549; experiment: cells; format: cell-based; details: Homo sapiens, read-out: Log10 TGI (converted)
[31] = test system: T-47D; experiment: cells; format: cell-based; details: Homo sapiens, T47D, read-out: Log10 TGI
[32] = test system: 60 cell line panel; experiment: NCI 60 cell line screen, whole panel; format: cell-based
[33] = test system: murine keratinocyte cell line PE; experiment: growth inhibition of PE cells (MTT assay); format: cell-based; details: 100 nanomolar
Procedure: To determine the inhibitory effect of the compositions of the present invention on cell proliferation, screening assays were performed on a murine keratinocyte cell line PE. Cell line PE was chosen for its particular sensitivity to the induction of ornithine decarboxylase (ODC) activity by the extensively characterized tumor promoter TPA. […] PE cell culture medium consisted of Eagle's minimal essential medium without calcium chloride (Whittaker Bioproducts, Walkersville, Mass.) supplemented with 8% chelexed fetal calf serum and 1% antibiotic-antimycotic (Gibco BRL) and the addition of CaCl2 to 0.05 mM Ca^++.
Growth Inhibition. Growth curves, shown in FIGS. 1 and 2, for PE cells treated with calcitriol and the C-10 carbon-substituted dimers 21, 22, 26, 27, and 28 generated by assay for the reduction of the tetrazolium-based compound MTT, see Charmichael, et al., Cancer Res., 47:936-942 (1987). […] PE cells were seeded at a density of 5,000 cells/well in 50 μL of medium into 96-well microtiter plates. Twelve hours later, the medium was removed, and cells were treated with 100 μL of fresh medium into which the appropriate amount of calcitrol or analog dissolved in dimethyl sulfoxide (DMSO) had been added, with the concentration of DMSO held constant at 0.1%. […] At 24-hour intervals following the initial treatment of the cells with compounds, 0.1 mg (50 μL of a 2 mg/mL solution) of MTT was added to each well. After 4 hours, the MTT was removed and DMSO added to dissolve the blue formazan dye. Using a microtiter plate reader, the A505 was then determined and cell number calculated from blank-subtracted absorbance values.

[34] = test system: chloroquine-sensitive P. falciparum (NF54); experiment: In vitro antimalarial activity ([3H]hypoxanthine incorporation); format: cell-based; details: in words
Procedure: Activity was determined by measuring the incorporation of [^3 H]hypoxanthine, by the methods of Desjardins and Milhouse, with the following modofications, see […].; Haynes, […]. Antimicrob. Agents Chemother., 16:710 (1979); Milhous, W. K.; Weatherly, […].; Antimicrob. Agents Chemother., 27: 525 (1985). […] Parasitemia was maintained at 0.05-3% and doubling time at approximately 15 hours by twice weekly change of medium and replenishment with fresh erythrocytes. […] Sigma-Aldrich #27,043-1). DMSO solutions were diluted 500-fold in medium, serially diluted in 0.2% DMSO in medium (to maintain constant solvent concentration), then 100 μL aliquots were pipetted into microtiter plate wells (Costar 3595). […] Plates included at least 8 wells of no drug controls (4 with and 4 without DMSO) and 4 wells of uninfected erythrocytes. […] Cells were harvested (Brandel MB-48R) onto GF-C glass filters (Brandel). The filters were washed five times with 3 mL water per sample spot, dried under a heat lamp, and counted (Beckman Model LS-6500) in scintillation cocktail (ICN Cytoscint). Decays per minute (dpm) values were downloaded and analyzed (Power MFacintosh 7200/90; Microsoft Excel 5.0), to yield the mean and standard deviation at each drug concentration.

[35] = test system: IGROVI; experiment: cells; details: 60 cell
[36] = test system: ACHN; experiment: cells; details: Homo sapiens, read-out: Log10 LC50 (converted)
[37] = rat liver microsomes; cited from earlier work
[38] = test system: murine keratinocyte cell line PE; experiment: viability by trypan blue exclusion; format: cell-based; details: 96 hours
[39] = cited from earlier work
[40] = read-out: Log10 LC50 (converted)
[41] = read-out: Log10 TGI (converted)
[42] = read-out: Log10 GI50 (converted)

Question: Which results are given for `C[C@@H]1CC[C@H]2[C@@H](C)C(OC3O[C@@H]4O[C@@]5(C)CC[C@H]6[C@H](C)CC[C@@H]([C@H]3C)[C@@]46OO5)O[C@@H]3O[C@@]4(C)CC[C@@H]1[C@]32OO4` (some centres unmarked)?
Answer: times more cytotoxic than artemisinin [1]: approximately twenty-two; times more cytotoxic than dihydroartemisinin (II-1) [1]: sixty; times more potent than artemisinin at 50% growth inhibition ([1]; one cancer cell line): approximately twenty-two; SD90 (parasitemia 90 percent suppressed) ([2]; P. berghei-infected mice): 10 mg/kg

Question: What does the source list for `C[C@H]1[C@@H](CC(=O)c2cccc(C(=O)C[C@H]3O[C@@H]4O[C@@]5(C)CC[C@H]6[C@H](C)CC[C@@H]([C@H]3C)[C@@]46OO5)c2)O[C@@H]2O[C@@]3(C)CC[C@H]4[C@H](C)CC[C@@H]1[C@@]24OO3` [Dimer 22]?
Answer: IC (TGI) [3]: > 100 µM; GI50 [4]: > 100 µM; CC50 [5, 40]: > 100 µM; IC (TGI) [5, 41]: > 100 µM; CC50 [6, 40]: > 100 µM; IC (TGI) [6, 41]: > 100 µM; IC (TGI) [7]: > 100 µM; IC (TGI) [8]: > 100 µM; CC50 [9, 40]: > 100 µM; IC (TGI) [9, 41]: > 100 µM; LC50 [10, 40]: > 100 µM; IC (TGI) [10, 41]: > 100 µM; IC (TGI) ([11]; NCI-H460, read-out: Log10 TGI): > 100 µM; CC50 ([11]; NCI-H460, read-out: Log10 LC50 (converted)): > 100 µM; IC (TGI) [12]: > 100 µM; IC (TGI) [13]: > 100 µM; IC (TGI) [14]: > 100 µM; IC (TGI) [15]: > 100 µM; IC (TGI) [16]: > 100 µM; IC (TGI) [17]: > 100 µM; IC (TGI) [18]: > 100 µM; IC (TGI) [19]: > 100 µM; IC (TGI) [20]: > 100 µM; GI50 [21, 42]: 4.37 µM; IC (TGI) [21, 41]: > 100 µM; IC (TGI) [22]: > 100 µM; GI50 [23]: 46.8 µM; IC (TGI) [24]: > 100 µM; IC (TGI) ([25]; MCF7, read-out: Log10 TGI): > 100 µM; GI50 ([25]; MCF7, read-out: Log10 GI50 (converted)): 0.389 µM; IC (TGI) [26]: > 100 µM; IC (TGI) [27]: > 100 µM; IC (TGI) [28]: > 100 µM; CC50 [29, 40]: > 100 µM; IC (TGI) [29, 41]: > 100 µM; IC (TGI) [30]: > 100 µM; IC (TGI) [31]: > 100 µM; GI50 ([32]; 60 cell, mean over panel, read-out: Log10 GI50 MG MID (converted)): 75.9 µM; Log10 TGI Delta ([32]; panel): 0.00; Log10 TGI Range ([32]; panel): 0.00; antiproliferative activity compared with calcitriol [33]: at least as antiproliferative as calcitrol; IC50 compared with artemisinin [34]: lower than that of artemisinin; GI50 [35, 42]: 0.589 µM; CC50 ([35]; Homo sapiens, read-out: Log10 LC50 (converted)): > 100 µM; CC50 [36]: > 100 µM

Question: Which “conversion into dihydroartemisinin (II-1)” value [37] does the source give for `CCO[C@H]1O[C@@H]2O[C@@]3(C)CC[C@H]4[C@H](C)CC[C@@H]([C@H]1C)[C@@]24OO3` [arteether] here?
Answer: Its value is “rapidly converted”.

Question: For `C=C1/C(=C\C=C2/CCC[C@]3(C)[C@@H]([C@H](C)CCCC(C)(C)O)CC[C@@H]23)C[C@@H](O)C[C@@H]1O` [calcitriol, 1α,25-dihydroxyvitamin D3], which “viability of treated cells vs control cells” value [38] is on record?
Answer: Its value is “identical to control cells”.

Question: With `C[C@@H]1CC[C@H]2[C@@H](C)C(O)O[C@@H]3O[C@@]4(C)CC[C@@H]1[C@]32OO4` (some centres unmarked) [dihydroartemisinin (II-1), dihydroartemisinin] as the compound, how does the half-life in plasma [39] read?
Answer: Its half-life in plasma is “less than two”.

Question: For `CC1=CO[C@@H]2O[C@@]3(C)CC[C@H]4[C@H](C)CC[C@@H]1[C@@]24OO3` [olefinic compound III], which “activity against P. berghei-infected mice” value ([2]; in words) is on record?
Answer: The value was “inactive”.
